The text below walks through data of patent US8961959B2, “Glucosylceramide synthase inhibitors and therapeutic methods using the same” (The Regents of the University of Michigan, priority 2011, dated 2015).

One data set relates to MDR1-MDCKII cells. In words: GCS inhibition (GlcCer production) in MDCKII cells stably expressing human MDR1. Type of data set: cell-based, canine. The following applies: for IC50: Canis lupus familiaris, inhibition of GlcCer production in MDCKII cells stably expressing human MDR1, 24 h, read-out: MDR-MDCK IC50; for MDR/WT: ratio of MDR1-MDCKII IC50 divided by WT-MDCKII IC50. As to the method:
(§1) Parental (WT-)MDCKII cells and MDCKII cells retrovirally transduced with human MDR-1 cDNA were obtained from the Netherlands Cancer Institute. Both cell lines were routinely maintained in medium consisting of Opti-MEM/F 12 (1:1), 5% FBS, 100 U/mL of penicillin, 100 μg/mL streptomycin and […] L-glutamine. MDCKII cells were newly thawed from frozen ampules every two months.
Stock solutions of water-insoluble glycosphingolipid inhibitors (100 mM) were prepared by dissolving each inhibitor into 100% ethanol as previously described (3). The inhibitor-ethanol solutions then were diluted 50× into 2 mM delipidated bovine serum albumin-phosphate buffered saline solution to make water-soluble glycosphingolipid inhibitor-bovine serum albumin complexes. The inhibitor-bovine serum album complexes were sterile-filtered and stored at −20° C. Prior to use, portions of the inhibitor-bovine serum albumin complexes were further diluted with Opti-F12 to make treatment solutions. Equal amounts of bovine serum albumin and ethanol were added into the control cultures. WT and MDR1-MDCKII cells (5×10^5) were seeded into 10-cm culture dishes containing 10 ml of Opti-F12 with 5% FBS. […]
(§2) Following inhibitor treatment, whole cellular lipids of wild type and MDR1-MDCKII cells were extracted as previously described in detail (10). Briefly, cells were washed with ice-cold phosphate buffered saline, fixed by methanol, and collected with rubber scraper. Chloroform was then added to yield a theoretical ratio of chloroform:methanol:water at 1:2:0.8 (v/v/v) to form a mono-phase. Cell debris and proteins were removed by centrifugation at 2200×g for 30 min. The supernatants were portioned by adding chloroform and 0.9% NaCl. The lower organic phases containing neutral glycosphingolipids lipids were washed with methanol and 0.9% NaCl, and subjected to base- and acid-hydrolysis (10). A portion of purified glycosphingolipids normalized to 100 nmol of total phospholipids was analyzed by high performance thin layer chromatography. The thin layer chromatography separations were processed twice. The plate pretreated with 1% sodium borate was first developed in a solvent system consisting of chloroform/methanol (98/2, v/v). After air drying, the plate was then developed in a solvent system containing chloroform/methanol/water (70/30/4, v/v/v). The levels of glucosylceramide were detected by charring with 8% cupric sulfate in 8% phosphoric acid, and quantified by densitometric scanning using ImageJ, NIH Image.

The target in data set [1] is T1, glucosylceramide synthase (GCS) (Canis lupus familiaris, UniProt A0A8I3MXG6).
T1 construct: Madin-Darby canine kidney (MDCK) cell homogenates (120 μg of protein) were incubated; endogenous in cells; host or cells: MDCK (Madin-Darby canine kidney) cell homogenate
T1 sequence (A0A8I3MXG6 1-394): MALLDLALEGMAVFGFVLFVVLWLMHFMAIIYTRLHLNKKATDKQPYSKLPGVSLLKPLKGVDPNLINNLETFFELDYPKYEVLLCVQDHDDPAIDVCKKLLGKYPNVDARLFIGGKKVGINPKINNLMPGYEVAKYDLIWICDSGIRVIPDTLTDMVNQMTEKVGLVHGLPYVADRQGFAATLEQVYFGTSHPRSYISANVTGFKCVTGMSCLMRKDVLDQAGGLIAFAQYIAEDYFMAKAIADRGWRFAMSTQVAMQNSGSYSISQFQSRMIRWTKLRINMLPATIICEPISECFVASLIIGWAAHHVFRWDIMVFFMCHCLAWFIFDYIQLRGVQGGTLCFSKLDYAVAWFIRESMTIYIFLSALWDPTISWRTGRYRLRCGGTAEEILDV
Description: GCS activity, broken cell (MDCK cell homogenate) assay. Type of data set: biochemical, canine. The protocol:
Enzyme activity was measured as described previously (9). Madin-Darby canine kidney (MDCK) cell homogenates (120 μg of protein) were incubated with uridine diphosphate-[^3H]glucose (100,000 cpm) and liposomes consisting of 85 μg of octanoylsphingosine, 570 μg of dioleoylphosphatidylcholine, and 100 μg of sodium sulfatide in a 200 μL reaction mixture and kept for 1 h at 37° C.

A further data set has as its system WT-MDCKII cells. Description: GCS inhibition (GlcCer production) in whole wild-type MDCKII cells. The following applies: Canis lupus familiaris, MDCK-II; inhibition of GlcCer production in whole wild-type MDCKII cells, 24 h; read-out: WT-MDCK IC50. Type of data set: cell-based, canine. The protocol: as §1, with “months. Protein levels of MDR1 in MDR1-MDCKII cells were measured monthly, and MDR1-MDCKII cell passages were immediately terminated when a reduction of MDR1 levels was observed by Western blot using anti-human MDR1 monoclonal antibody (Abcam C219).” for “months.”
Stock solutions of water-insoluble glycosphingolipid inhibitors (100 mM) were prepared by dissolving each inhibitor into 100% ethanol as previously described (3). The inhibitor-ethanol solutions then were diluted 50× into 2 mM delipidated bovine serum albumin-phosphate buffered saline solution to make water-soluble glycosphingolipid inhibitor-bovine serum albumin complexes. The inhibitor-bovine serum album complexes were sterile-filtered and stored at −20° C. Prior to use, portions of the inhibitor-bovine serum albumin complexes were further diluted with Opti-F12 to make treatment solutions. Equal amounts of bovine serum albumin and ethanol were added into the control cultures. WT and MDR1-MDCKII cells (5×10^5) were seeded into 10-cm culture dishes containing 10 ml of Opti-F12 with 5% FBS. After 24 hours, the medium was replaced with fresh serum-free Opti-F12 medium, and cells were exposed to candidate GCS inhibitors at concentrations of 0, 1, 3, 10, 30, 100 and 300 nM for 24 hours.
as §2, with “Image. Image data was analyzed, and the IC50 of each inhibitor was calculated using GraphPad Prism (version 5.03).” for “Image.”

For data set [2] the following is noted: cited from earlier work.
The next data set deals with T2, MDR1 (Homo sapiens, UniProt P08183).
T2 construct: host or cells: MDCKII (canine kidney) cells retrovirally transduced with human MDR-1 cDNA
In words: [3H]Vinblastine transport in MDR1-MDCKII cells. The following applies: 1-100 μM, 2 h, relative to vehicle. Type of data set: cell-based. As to the method: MDR1- and WT-MDCKII cells were grown to confluence on Transwell filters (12 well plates) in DMEM+10% FBS. […] Uptake was measured over 2 hours at 37° C. At that time, uptake was stopped by washing each side of the membrane 3× with ice-cold PBS. Vinblastine uptake into the cells, after correction for any remaining adherent extracellular contamination, was calculated as described previously (11). To investigate the effect of experimental drugs on MDR-mediated transport, those compounds were added to the apical chamber (1-100 μM) during vinblastine uptake and the uptake results expressed as a % of that with vehicle alone.

T2 sequence (P08183 whole entry): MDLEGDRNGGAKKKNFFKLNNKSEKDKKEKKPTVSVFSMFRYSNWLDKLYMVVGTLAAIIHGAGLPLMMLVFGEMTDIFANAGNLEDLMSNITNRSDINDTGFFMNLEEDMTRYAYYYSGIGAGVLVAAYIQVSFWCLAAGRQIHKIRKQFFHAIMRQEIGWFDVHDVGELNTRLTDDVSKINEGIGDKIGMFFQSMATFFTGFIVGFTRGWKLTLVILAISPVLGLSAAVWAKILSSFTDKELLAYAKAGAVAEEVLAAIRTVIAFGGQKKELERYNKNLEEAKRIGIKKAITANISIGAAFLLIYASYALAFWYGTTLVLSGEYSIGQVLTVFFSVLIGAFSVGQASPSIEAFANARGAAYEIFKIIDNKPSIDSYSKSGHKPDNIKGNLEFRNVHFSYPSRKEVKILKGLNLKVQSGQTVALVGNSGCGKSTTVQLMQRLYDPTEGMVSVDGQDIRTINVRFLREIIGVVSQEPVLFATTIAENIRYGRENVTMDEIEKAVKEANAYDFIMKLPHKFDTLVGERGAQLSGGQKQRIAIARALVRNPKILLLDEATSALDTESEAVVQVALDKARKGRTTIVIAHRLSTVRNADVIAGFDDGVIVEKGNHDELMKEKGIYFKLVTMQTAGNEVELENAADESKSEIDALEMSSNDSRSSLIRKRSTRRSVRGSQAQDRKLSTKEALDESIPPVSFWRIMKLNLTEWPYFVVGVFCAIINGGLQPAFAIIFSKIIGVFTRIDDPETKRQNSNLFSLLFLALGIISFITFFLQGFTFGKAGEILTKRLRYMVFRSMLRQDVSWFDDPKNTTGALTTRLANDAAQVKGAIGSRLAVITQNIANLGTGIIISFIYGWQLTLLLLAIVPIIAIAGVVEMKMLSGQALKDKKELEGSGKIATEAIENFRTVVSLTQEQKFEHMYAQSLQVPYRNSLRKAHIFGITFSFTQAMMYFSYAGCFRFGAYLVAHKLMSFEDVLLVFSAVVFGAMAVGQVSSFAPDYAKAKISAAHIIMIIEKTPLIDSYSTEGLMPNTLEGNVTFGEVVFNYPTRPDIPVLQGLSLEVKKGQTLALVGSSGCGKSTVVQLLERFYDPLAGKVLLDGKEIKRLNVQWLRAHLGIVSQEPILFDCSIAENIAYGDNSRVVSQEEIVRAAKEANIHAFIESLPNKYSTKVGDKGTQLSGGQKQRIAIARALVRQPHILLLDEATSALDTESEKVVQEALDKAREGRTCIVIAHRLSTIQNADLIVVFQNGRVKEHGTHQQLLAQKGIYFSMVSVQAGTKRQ

As to `O=C(/C=C/c1ccccc1)N[C@H](CN1CCCC1)[C@H](O)c1ccc2c(c1)OCCO2` [Compound 3f, N-((1R,2R)-1-(2,3-dihydrobenzo[b][1,4]dioxin-6-yl)-1-hydroxy-3-(pyrrolidin-1-yl)propan-2-yl)cinnamamide], the IC50 – broadly, the concentration at which inhibition is half-maximal – was determined as 389 nM with MDR1-MDCKII cells, 379 nM in data set [1] and 80.7 nM in the data set with WT-MDCKII cells. Further, the MDR/WT in the data set with MDR1-MDCKII cells is 4.8.
As for `CCCCN1C[C@H](O)[C@@H](O)[C@H](O)[C@H]1CO` [NB-DNJ, N-butyldeoxynojirimycin], the “effect on mouse body weight” value in data set [2] was “reduce mouse body weight”.
Regarding `O=C(N[C@H](CN1CCCC1)[C@H](O)c1ccc2c(c1)OCCO2)C1Cc2ccccc2C1` [Compound 3i, N-((1R,2R)-1-(2,3-dihydrobenzo[b][1,4]dioxin-6-yl)-1-hydroxy-3-(pyrrolidin-1-yl)propan-2-yl)-2,3-dihydro-1H-indene-2-carboxamide], the IC50 in the data set on MDR1-MDCKII cells was found to be 3210 nM; in data set [1] it was 107 nM; with WT-MDCKII cells, 151 nM. For the same molecule, the “activity in the MDR1-MDCKII line” value in the data set on MDR1-MDCKII cells (in words) is recorded as “loss of activity”. The MDR/WT in the data set with MDR1-MDCKII cells is recorded as 21. Also, the “[3H]vinblastine uptake into MDR1-MDCKII cells” value on MDR1 was “dose dependent increase”.
Consider `O=C(N[C@H](CN1CCCC1)[C@H](O)c1ccc2c(c1)OCCO2)OCc1ccccc1` [Compound 3b], for which the results for the IC50 (in the data set with MDR1-MDCKII cells; in data set [1]; with WT-MDCKII cells) were 47.1 nM, 144 nM and 7.3 nM, respectively. Besides, the MDR/WT in the data set with MDR1-MDCKII cells is 6.5.
Regarding `O=C(CCc1ccccc1)N[C@H](CN1CCCC1)[C@H](O)c1ccc2c(c1)OCCO2` [Compound 3c], the IC50 came out at 86.7 nM in the data set with MDR1-MDCKII cells, 134 nM in data set [1] and 23.5 nM in the data set with WT-MDCKII cells. Also, the MDR/WT in the data set on MDR1-MDCKII cells is 3.7.
On to `O=C(CCCc1ccccc1)N[C@H](CN1CCCC1)[C@H](O)c1ccc2c(c1)OCCO2` [Compound 3e], for which the values for the IC50 (in the data set on MDR1-MDCKII cells; in data set [1]; with WT-MDCKII cells) were 1440 nM, 80 nM and 254 nM, respectively. The MDR/WT in the data set on MDR1-MDCKII cells was 5.7.
`CN(C(=O)CCc1ccccc1)[C@H](CN1CCCC1)[C@H](O)c1ccc2c(c1)OCCO2` [Compound 3j, N-((1R,2R)-1-(2,3-dihydrobenzo[b][1,4]dioxin-6-yl)-1-hydroxy-3-(pyrrolidin-1-yl)propan-2-yl)-N-methyl-3-phenylpropanamide]: the IC50 in the data set with MDR1-MDCKII cells amounted to 1250 nM; in data set [1], 158 nM; in the data set with WT-MDCKII cells it was 59.4 nM. In the data set on MDR1-MDCKII cells, the MDR/WT was 21.
In the case of `O=C(N[C@H](CN1CCCC1)[C@H](O)c1ccc2c(c1)OCCO2)C1CC1c1ccccc1` (stereo partly drawn) [Compound 3g, N-((1R,2R)-1-(2,3-dihydrobenzo[b][1,4]dioxin-6-yl)-1-hydroxy-3-(pyrrolidin-1-yl)propan-2-yl)-2-phenylcyclopropanecarboxamide], the IC50 was 78.1 nM in the data set with MDR1-MDCKII cells, 90 nM in data set [1] and 27.3 nM with WT-MDCKII cells. Also, the MDR/WT with MDR1-MDCKII cells is 2.9.
In data set [1], `O=C(Cc1ccccc1)N[C@H](CN1CCCC1)[C@H](O)c1ccc2c(c1)OCCO2` [Compound 3d, N-((1R,2R)-1-(2,3-dihydrobenzo[b][1,4]dioxin-6-yl)-1-hydroxy-3-(pyrrolidin-1-yl)propan-2-yl)-2-phenylacetamido] had an IC50 above 2000 nM.
